Measurements as given in article PMC11271275, “The structural insight into the functional modulation of human anion exchanger 3” (Nature Communications, 2024).

Key:
[1] = target: T1, AE2 (human SLC4A2) (Homo sapiens, UniProt P04920); experiment: BCECF intracellular pH assay on Cl- reintroduction, SLC4A2-KO HEK293F cells; assay type: cell-based; parameters: overexpressed in SLC4A2-KO HEK293F cells; P04920-1 printed for the AE2 part of the chimera; conditions: 40 µM DIDS; 25 mM NaHCO3, pH 7.4
T1 sequence (P04920 1-1241): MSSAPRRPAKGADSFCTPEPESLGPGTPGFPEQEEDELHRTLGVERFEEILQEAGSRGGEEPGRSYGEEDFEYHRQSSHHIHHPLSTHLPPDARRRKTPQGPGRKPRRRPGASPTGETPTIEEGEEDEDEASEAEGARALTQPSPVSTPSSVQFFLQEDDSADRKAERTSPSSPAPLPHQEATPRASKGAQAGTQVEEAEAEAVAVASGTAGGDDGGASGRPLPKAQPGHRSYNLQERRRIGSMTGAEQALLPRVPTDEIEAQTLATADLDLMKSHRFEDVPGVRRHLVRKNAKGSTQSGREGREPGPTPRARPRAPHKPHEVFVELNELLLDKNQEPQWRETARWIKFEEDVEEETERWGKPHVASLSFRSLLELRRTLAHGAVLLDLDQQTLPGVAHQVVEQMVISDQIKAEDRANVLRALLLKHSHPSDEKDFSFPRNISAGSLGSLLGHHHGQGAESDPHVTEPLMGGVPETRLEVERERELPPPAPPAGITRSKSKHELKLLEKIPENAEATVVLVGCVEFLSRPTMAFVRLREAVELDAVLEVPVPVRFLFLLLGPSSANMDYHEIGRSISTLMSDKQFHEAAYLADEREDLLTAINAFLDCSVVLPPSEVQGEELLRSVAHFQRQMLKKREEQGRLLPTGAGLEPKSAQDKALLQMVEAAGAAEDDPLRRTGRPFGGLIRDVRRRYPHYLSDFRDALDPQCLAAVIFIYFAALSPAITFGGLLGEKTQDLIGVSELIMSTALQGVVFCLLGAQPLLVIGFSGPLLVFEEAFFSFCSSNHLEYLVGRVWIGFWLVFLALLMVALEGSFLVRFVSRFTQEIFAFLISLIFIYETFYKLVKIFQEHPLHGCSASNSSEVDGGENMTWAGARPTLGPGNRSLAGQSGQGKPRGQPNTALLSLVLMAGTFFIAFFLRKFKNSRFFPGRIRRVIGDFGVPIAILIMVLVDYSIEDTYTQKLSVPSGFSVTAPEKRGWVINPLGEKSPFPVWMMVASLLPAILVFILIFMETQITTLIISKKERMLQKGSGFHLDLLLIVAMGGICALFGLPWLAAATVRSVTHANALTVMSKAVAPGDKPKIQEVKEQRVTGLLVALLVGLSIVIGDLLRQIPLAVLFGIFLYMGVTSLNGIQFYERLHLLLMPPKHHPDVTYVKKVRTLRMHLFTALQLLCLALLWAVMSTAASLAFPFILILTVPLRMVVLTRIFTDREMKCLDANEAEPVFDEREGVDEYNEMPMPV

[2] = target: T1, AE2 (human SLC4A2); conditions: Cl-/HCO3- exchange; 25 mM NaHCO3, pH 7.4
[3] = target: hAE3^NTD2^TMD chimera (NTD of hAE3 fused to TMD of hAE2) (human) (UniProt P04920); experiment: cryo-EM structure; hAE3^NTD2^TMD chimera in GDN; 300 kV Titan Krios, C2 symmetry; 3.35 Å; TMDs inward-facing
[4] = target: the molecule itself; experiment: SEC + other: 200 kV cryo-EM analysis; Superose 6 Increase 10/300 GL, 150 mM NaCl, 20 mM HEPES pH 7.4, 0.01% GDN, 4 °C; protein solubilised with LMNG

O=S(=O)(O)c1cc(N=C=S)ccc1/C=C/c1ccc(N=C=S)cc1S(=O)(=O)O [DIDS, 4,4’-diisothiocyanatostilbene-2,2’-disulfonate]
inhibition at 40 μM [1]: activities of AE2 and AE3 could be inhibited by adding DIDS

O=C(O)O [HCO3^−]
BCECF intracellular pH assay on Cl- reintroduction, SLC4A2-KO HEK293F cells [2]: a lower pH-modulating function than that observed for AE2

hAE3^NTD2^TMD chimera (NTD of hAE3 fused to TMD of hAE2) (from UniProt P04920-1 672-1241)
stoichiometry N [3]: 2

B1: human anion exchanger 3, cardiac isoform (hAE3) (natural protein, UniProt P48751-1 300-1232, looked up)
chain: GLAPILRRKKKKKKLDRRPHEVFVELNELMLDRSQEPHWRETARWIKFEEDVEEETERWGKPHVASLSFRSLLELRRTIAHGAALLDLEQTTLPGIAHLVVETMIVSDQIRPEDRASVLRTLLLKHSHPNDDKDSGFFPRNPSSSSMNSVLGNHHPTPSHGPDGAVPTMADDLGEPAPLWPHDPDAKEKPLHMPGGDGHRGKSLKLLEKIPEDAEATVVLVGCVPFLEQPAAAFVRLNEAVLLESVLEVPVPVRFLFVMLGPSHTSTDYHELGRSIATLMSDKLFHEAAYQADDRQDLLSAISEFLDGSIVIPPSEVEGRDLLRSVAAFQRELLRKRREREQTKVEMTTRGGYTAPGKELSLELGGSEATPEDDPLLRTGSVFGGLVRDVRRRYPHYPSDLRDALHSQCVAAVLFIYFAALSPAITFGGLLGEKTEGLMGVSELIVSTAVLGVLFSLLGAQPLLVVGFSGPLLVFEEAFFKFCRAQDLEYLTGRVWVGLWLVVFVLALVAAEGSFLVRYISPFTQEIFAFLISLIFIYETFYKLYKVFTEHPLLPFYPPEGALEGSLDAGLEPNGSALPPTEGPPSPRNQPNTALLSLILMLGTFFIAFFLRKFRNSRFLGGKARRIIGDFGIPISILVMVLVDYSITDTYTQKLTVPTGLSVTSPDKRSWFIPPLGSARPFPPWMMVAAAVPALLVLILIFMETQITALIVSQKARRLLKGSGFHLDLLLIGSLGGLCGLFGLPWLTAATVRSVTHVNALTVMRTAIAPGDKPQIQEVREQRVTGVLIASLVGLSIVMGAVLRRIPLAVLFGIFLYMGVTSLSGIQLSQRLLLILMPAKHHPEQPYVTKVKTWRMHLFTCIQLGCIALLWVVKSTAASLAFPFLLLLTVPLRHCLLPRLFQDRELQALDSEDAEPNFDEDGQDEYNELHMPV
notes: Anion exchanger 3 (AE3, SLC4A3), human, cardiac isoform; amino acids 300-1232 by the numbering of UniProt P48751-1 (results); the methods name the cDNA as human Cardiac Anion Exchanger 3, UniProt P48751-2; the introduction says cAE3 lacks residues 1-296 of bAE3; A TEV protease site follows the N-terminal tags in the modified pCAGGS vector; no cleavage is described; The N-terminal domain was not …
stoichiometry N [4]: 2
